Earlier results, collected in US20140010802A1, “SYSTEMS AND METHODS FOR DIAGNOSING A PREDISPOSITION TO DEVELOP CANCER” (University of Hawaii, Office of Technology Transfer and …, priority 2011, published 2014).

Test system: MM patients
Conditions: phase 1 clinical trial, 3 MM patients

In the case of `Cc1c(CN2CCN(C(=O)[C@H](C)O)CC2)sc2c(N3CCOCC3)nc(-c3cnc(N)nc3)nc12` [GDC0980], the “anti-tumor effects in patients” value is listed as “anti-tumor effects”.
